Measurements as given in US4166852A, “Piperazino-pyrimidines and their use as spasmolytic agents” (priority 1974, dated 1979).
Values after ≈ are worked out from the molar mass of the structure shown. Read-outs that look alike come from different tables or passages of the source.

Columns and labels:
[1] = acute toxicity, LD 50, CD 1 mice; type: in vivo; settings: mouse, in vivo
From the text: The acute toxicities of the compounds according to the invention have been determined on CD 1 (Charles RIVER) mice by intravenous and oral methods. The LD 50 of each compound has been calculated by the cumulative method of J. J. Reed and H. Muench, (Amer. J. Hyg., 1938, 27, 493).

dogs = assay: anti-emetic activity, apomorphine vomiting test on dogs; type: in vivo; settings: Canis lupus familiaris, po, dogs, orally, apomorphine; read-out: Anti-emetic activity on dogs ED 50
From the text: The anti-emetic properties of the compounds according to the invention have been shown by oral administration of apomorphine to dogs in the vomiting test according to G. Chen and C. J. Ensor, Pharmacol. exp. Therap., 98, 24 (1950).

rat = assay: catalepsy test, rat; type: in vivo, CD rat (Charles RIVER); settings: po, orally, read-out: Catalepsy AD 50
From the text: (§1) The neuroloptic effects of the compounds according to the invention have been shown with respect to the CD rat (Charles RIVER) taken orally in the catalepsy test according to S. COURVOISIER, R. DUCROT, and L. JULOU, in Psychotropic Drugs, S. GARATTINI and V. GHETTI, Edit.--ELSEVIER Publ. Co., AMSTERDAM, LONDON, NEW YORK, PRINCETON, 1957 P. 373 and also in the traction test of CD1 (Charles RIVER) mice taken orally S. COURVOISIER, Quart. Rev. Psychiat. Neurol. 17, 25 (1956), on the one hand and also in the spontaneous motility test.

mouse [2] = assay: traction test, mouse; type: in vivo, CD1 (Charles RIVER) mice; settings: po, orally, read-out: Traction AD 50
From the text: as §1

mouse [3] = assay: spontaneous motility test (hypomotility), mouse; type: in vivo, mice; settings: po, 1 h, orally, 60 minutes before measuring, 50% reduction of mean motility, first 5 minutes, read-out: Hypomotility ED 50
From the text: as §1
This latter technique comprises keeping an account of the displacements of the mice by means of a floor of metal strips which enables the spontaneous activity of the animals to be recorded during the first 5 minutes subsequent to their being introduced into the measuring chamber. The products are dispensed 60 minutes before measuring is effected and 10 mice are used per dose. The results are expressed in ED 50 which represents the dose of substance capable of reducing the mean motility of the treated animals by 50% relative to that of the sample group which has only received the dispensing carrier.

mice = assay: analgesic activity, painful abdominal torsions test with phenylbenzoquinone; type: in vivo, CD 1 (Charles RIVER) mice; settings: Mus musculus, po; mice, orally; read-out: Phenylbenzoquinone test on mice AD 50
From the text: The analgesic properties of the products according to the invention have been shown with CD 1 (Charles RIVER) mice in the painful abdominal torsions test with phenylbenzoquinone according to the technique of E. Siegmund, R. Cadmus and Go.Lu--Proc. Soc. Exp. Biol. Med., 95, 729, (1957).

[4] = system: serotonine plantar oedema; assay: anti-serotonine activity, serotonine plantar oedema; type: in vivo, CD (Charles RIVER) rats; settings: po; rat, orally; read-out: Serotonine plantar oedema AD 50
From the text: (§2) The anti-serotonine activities of the compounds according to the invention have been shown by oral administration to the CD (Charles RIVER) rats using the technique of the serotonine plantar oedema (W. Theobald and R. Domenjoz--Arzneimittel Forsch, 8, 18, 1958 and with the CD 1 (Charles RIVER) mice using the technique known as "head twitch" according to S. J. Corne, R. W. Pickering and B. T. Warner, Brit. J. Pharmacol., 20, 106, (1963). The anti-serotonine activity has also been determined on the one hand on the tricoloured guinea-pig, given intravenously, according to a method derived from H. Konzet and R. Rossler, Arch. exp. Pathol, Pharmakol., 195, 71, (1940) and on the other hand in vitro with respect to the serotonine spasm of the isolated uterus of the rat according to the technique of A. Fanchamps, W. Doepfener, H. Weidman and A. Cerletti, Schw. Med. Worsch, 90, 1940, (1960).

head twitch = assay: anti-serotonine activity, head twitch; type: in vivo, CD 1 (Charles RIVER) mice; settings: Mus musculus, po; mice, orally; read-out: "Head-twitch" AD 50
From the text: as §2

serotonine bronchospasms = assay: anti-serotonine activity, serotonine bronchospasms; type: in vivo, tricoloured guinea-pig; settings: Cavia porcellus, iv; guinea pig, intravenously; read-out: Serotonine bronchospasms ED 50
From the text: as §2

serotonine = assay: antiserotonine properties on the whole (all four tests); parameters: species or system rat, mice, guinea pig; settings: comparison within the series
From the text: as §2

[5] = system: isolated duodenum of the rabbit (acetylcholine); assay: spasmolytic effect on isolated duodenum, acetylcholine spasm; type: cell-based; settings: Oryctolagus cuniculus, read-out: Spasmolytic effects EC 50 with respect to acetylcholine
From the text: (§3) Ges. Physiol., 102, 123, (1904) with respect to the spasms of the isolated duodenum of rabbits caused either by acetylchlorine for the spasmolytic nemotropes or by barium chloride for the spasmolytic musculotropes.

[6] = system: isolated duodenum of the rabbit (barium chloride); assay: spasmolytic effect on isolated duodenum, barium chloride spasm; type: cell-based; settings: Oryctolagus cuniculus, read-out: Spasmolytic effects EC 50 with respect to barium chloride
From the text: as §3

[7] = system: isolated duodenum of the rabbit; assay: spasmolytic activity overall; type: cell-based; settings: isolated duodenum of rabbits
From the text: as §3

solubility = type: physicochemical

With `CCCCCNc1nc(Cl)c(SC)c(N2CCN(C)CC2)n1` [Example 24, 2-n.pentylamino-4-N-methylpiperazino-6-chloro-5-methylthiopyrimidine] the LD50 ([1]; intravenous, read-out: Acute toxicity for mice LD 50, intravenous) was 87 mg/kg, the LD50 ([1]; oral, read-out: Acute toxicity for mice LD 50, orally) was ~600 mg/kg and the ED50 (dogs) was 1.9 mg/kg. The ED50 (rat) was 400 mg/kg, the ED50 (mouse [2]) was 210 mg/kg and the ED50 (mouse [3]) was 80 mg/kg. For the same compound, the ED50 (mice) was 100 mg/kg, the ED50 [4] was > 300 mg/kg and the ED50 (head twitch) was 25 mg/kg. For the same compound, the ED50 (serotonine bronchospasms) was 0.05 mg/kg, the “antiserotonine properties ranking” value (serotonine) was “the greatest antiserotonine properties on the whole” and the EC50 [5] was 0.5 µg/mL (≈ 1.45 µM). The EC50 [6] was 0.12 µg/mL (≈ 0.349 µM), the “spasmolytic activity type / ranking” value [7] was “most effective” and the “solubility in dilute hydrochloric acid” value (solubility; dilute hydrochloric acid) was “soluble”. For the same compound, the “solubility in ethanol (alcohol)” value (solubility; ethanol / alcohol) was “very soluble” and the solubility in water (solubility; water) was “insoluble”.
